Results: PubChem BioAssay (NCI)
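Cultured in 96-well plates, cells were exposed to test compound for 48 hours across five concentrations. GI50 = concentration required for 50% inhibition of growth. At the TGI there is no net growth.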

Key:
Test in all cases: growth of human tumour cells (NCI), 48 h
A549 NSCLC = system: A549 NSCLC
HCC-2998 colon = system: HCC-2998 colon
HCT-116 colon = system: HCT-116 colon
HL-60(TB) leukemia = system: HL-60(TB) leukemia
HOP-92 NSCLC = system: HOP-92 NSCLC
KM12 colon = system: KM12 colon
NCI-H522 lung = system: NCI-H522 lung
OVCAR-4 ovarian = system: OVCAR-4 ovarian
SK-OV-3 ovarian = system: SK-OV-3 ovarian
U251 CNS = system: U251 CNS

SMILES	GI50 (A549 NSCLC)	TGI (A549 NSCLC)	GI50 (HCC-2998 colon)	TGI (HCC-2998 colon)	GI50 (HCT-116 colon)	TGI (HCT-116 colon)	GI50 (HL-60(TB) leukemia)	TGI (HL-60(TB) leukemia)	GI50 (HOP-92 NSCLC)	TGI (HOP-92 NSCLC)	GI50 (KM12 colon)	TGI (KM12 colon)	GI50 (NCI-H522 lung)	TGI (NCI-H522 lung)	GI50 (OVCAR-4 ovarian)	TGI (OVCAR-4 ovarian)	GI50 (SK-OV-3 ovarian)	TGI (SK-OV-3 ovarian)	GI50 (U251 CNS)	TGI (U251 CNS)
O=C1NC(=O)C(=Cc2cn(Cc3ccccc3)c3ccccc23)C(=O)N1	13 µM	30.7 µM	10.9 µM	29.5 µM	11.7 µM	27.5 µM	21.4 µM	81.6 µM	1.5 µM	19.9 µM	15.9 µM	31.5 µM	13.1 µM	37.2 µM	4.84 µM	21 µM	6.3 µM	29 µM	12.8 µM	28.9 µM
Brc1cc(C2OCCCO2)ccc1OCc1ccccc1		> 100 µM		> 100 µM				> 100 µM		> 100 µM		> 100 µM		> 100 µM		> 100 µM		> 100 µM		
CCCC(O)c1cn(-c2cccc(S(=O)(=O)O)c2)nn1 (stereo not drawn)		> 100 µM		> 100 µM		> 100 µM		> 100 µM		> 100 µM		> 100 µM		> 100 µM		> 100 µM		> 100 µM		> 100 µM
COc1ccc2c(c1O)[C@@]13CCCC=C1[C@@H](C2)[N+](C)(C)CC3		> 100 µM		> 100 µM		> 100 µM		> 100 µM		> 100 µM		> 100 µM		> 100 µM		> 100 µM		> 100 µM		> 100 µM
CN1CCN(CCCOc2ccc3nc(Nc4ccc(F)c(F)c4)ccc3c2)CC1	2.19 µM	5.26 µM	1.71 µM	3.31 µM	1.49 µM	3.17 µM	1.26 µM	4.2 µM	1.1 µM	3.6 µM	1.89 µM	4.16 µM	1.44 µM	3.1 µM	2.84 µM	14.9 µM	2.59 µM	6.9 µM	1.69 µM	3.64 µM
CCCCNS(=O)(=O)c1ccc(-c2ccc3c(c2)-c2ccc(S(=O)(=O)NCCCC)cc2S3(=O)=O)cc1		57.3 µM		> 100 µM		54.9 µM		> 100 µM		41.5 µM		> 100 µM		66.2 µM		15.4 µM		45.5 µM		55.5 µM
COc1ccc2nc(C)cc(Sc3nc4ccccc4s3)c2c1	2.21 µM	14.2 µM	0.0938 µM	2.54 µM	1.14 µM	3.15 µM	0.533 µM	2.63 µM	0.475 µM	6.25 µM	1.9 µM	5.07 µM	1.31 µM	3.15 µM	0.993 µM	> 21.2 µM	1.19 µM	4.75 µM	1 µM	3.06 µM
C=CCC12CC(=O)CCC1c1ccc(OC)cc1C2=O (stereo not drawn)		> 100 µM		> 100 µM		> 100 µM		> 100 µM		> 100 µM		> 100 µM		> 100 µM		> 100 µM		> 100 µM		> 100 µM
COc1cc(C)cc(C(=O)/C=C/c2ccccc2)c1O		> 100 µM		38 µM		34.9 µM		> 100 µM		31.2 µM		41.2 µM		50.8 µM		45.9 µM		83.5 µM		35.6 µM
